Laboratory results from article PMC5352699, “Synthesis and in vitro antitumor activity of (1E,4E)-1-aryl-5-(2-((quinazolin-4-yl)oxy)phenyl)-1,4-pentadien-3-one derivatives” (Chemistry Central Journal, 2017).

Tests used:
[1] = test system: normal cell line NIH3T3 (mouse embryo fibroblast cell line); assay: MTT assay, NIH3T3 normal cells; type: cell-based; details: 72 h, read-out: Inhibition rates against different cells (%) NIH3T3
Procedure: (§1) The in vitro antitumor activity of the newly synthesized compounds 5a–5n were evaluated against a panel of three human cancer cell lines, including human gastric cancer cell line MGC-803, human prostate cancer cell line PC3, and human breast cancer cell line Bcap-37, and one normal cell line NIH3T3 (mouse embryo fibroblast cell line) by MTT method. Adriamycin (ADM) was chosen as a reference drug due to its availability and widespread use. Each experiment was repeated at least three times.
(§2) Human gastric cancer cell line MGC-803, human prostate cancer cell line PC3, and human breast cancer cell line Bcap-37 and one normal cell line NIH3T3 were obtained from Cell Bank of Type Culture Collection of Chinese Academy of Sciences (Shanghai, China). NIH3T3 was routinely maintained in a DMEM medium, while all the other cell lines were cultured in a 1640 medium. All the cells were grown in the medium supplemented with 10% FBS at 37 °C with 5% CO2.
(§3) The growth-inhibitory effects of the test compounds were determined on MGC-803, PC3, Bcap-37, and NIH3T3 cells. All cell types were seeded into 96-well plates at a density of 2 × 10^3 cells/well 100 μL of the proper culture medium and incubated with increasing concentrations of the compounds at 37 °C under cell culturing conditions. An MTT assay (Roche Molecular Biochemicals, 1465-007) was performed 72 h later according to the instructions provided by Roche. The precipitated formazan crystals were dissolved in SDS, and the absorbance was read at 595 nm with a microplate reader (BIO-RAD, model 680), which is directly proportional to the number of living cells in culture. The experiment was performed in triplicate. The percentage cytotoxicity was calculated using the formula. %Cytotoxicity=Controlabs-Blankabs-Testabs-Blankabs/Controlabs-Blankabs×100

[2] = test system: human gastric cancer cell line MGC-803; assay: MTT assay, MGC-803 cells; type: cell-based
Procedure: as §1, §2, §3

MGC-803 cells [3] = assay: AO/EB staining for apoptosis; type: cell-based, human; details: 12 h, 5f at 1, 5, 10 μM, HCPT at 10 μM
Procedure: It is well known that AO can pass through cell membranes, but EB cannot. Under the fluorescence microscope, living cells appear green. Necrotic cells stain red but have a nuclear morphology resembling that of viable cells. Apoptotic cells appear green, and morphological changes such as cell blebbing and formation of apoptotic bodies will be observed.
Representative images of the cells treated with 10 μM of HCPT (used as positive control) and 1, 5, 10 μM of compound 5f for 12 h are shown in Fig. 2a.
(§4) Cells were seeded in 6-well culture plates at a density of 5 × 10^4 cells/mL in 0.6 mL of medium and allowed to adhere to the plates overnight. The cells were incubated with different concentrations of compounds or vehicle solution (0.1% DMSO) in a medium containing 10% FBS for 12 h. After the treatment, the cover slip with monolayer cells was inverted on the glass slide with 20 μL of AO/EB stain (100 μg/mL), and finally analyzed for morphological characteristics of cell apoptosis under a fluorescence microscope (Olympus Co., Japan).

MGC-803 cells [4] = assay: Flow cytometry, Annexin V/PI double staining; type: cell-based, human; details: for apoptosis ratio: MGC-803 cells, 10 μM, 24 h
Procedure: In addition, the apoptosis ratios induced by compound 5f in MGC-803 cells were determined by flow cytometry, using Annexin V/PI double staining. Flow cytometry was performed on the total cell population (including both adherent and detached cells) and apoptosis detection was carried out as mentioned above. This double staining procedure discriminated necrotic cells (Q1, Annexin^−/PI^+), late apoptotic cells (Q2, Annexin^+/PI^+), intact cells (Q3, Annexin^−/PI^−) and early apoptotic cells (Q4, Annexin^+/PI^−). […] For the positive control HCPT, the apoptosis ratio was only 22.3% after 24 h of treatment at a concentration of 10 μM.
To further quantitative analysis of apoptosis, the cells were washed with PBS, stained with annexinV-FITC and propidium iodide (PI) using the AnnexinV-FITC kit (KeyGEN BioTECH). The cells were then subjected to flow cytometry according to manufacturer’s instructions and the stained cells were analyzed by FACS can flow cytometer (Becton–Dickinson, CA, USA).

[5] = test system: human breast cancer cell line Bcap-37; assay: MTT assay, Bcap-37 cells; type: cell-based
Procedure: as §1, §2, §3

[6] = test system: human prostate cancer cell line PC3; assay: MTT assay, PC3 cells; type: cell-based
Procedure: as §1, §2, §3

MGC-803 cells [7] = assay: TUNEL assay; type: cell-based, human; details: 5 μM, 5f 6, 12, and 18 h, HCPT 18 h
Procedure: To further verify AO/EB and Hoechst 33,258 staining results, TUNEL assay was also carried out. TUNEL (Terminal deoxynucleotidyl Transferase Biotin-dUTP Nick End Labeling) is a very popular assay for identifying apoptotic cells. The assay identifies apoptotic cells in situ by using terminal deoxynucleotidyl transferase (TdT) to transfer biotin-dUTP to these strand breaks of cleaved DNA. The biotin-labeled cleavage sites are then detected by reaction with HRP conjugated streptavidin and visualized by DAB showing brown color [24]. MGC-803 cells treated with compound 5f at 5 μM for 6, 12, and 18 h were stained with TUNEL, with HCPT as positive control at 5 μM for 18 h. […] We further concluded that compound 5f induced apoptosis against MGC-803.

MGC-803 cells [8] = assay: Hoechst 33,258 staining for apoptosis; type: cell-based, human; details: MGC-803 cells, 1, 5, and 10 μM, 12 h
Procedure: Membrane-permeable Hoechst 33,258 was a blue fluorescent dye and stained the cell nucleus. […] MGC-803 cells treated with compound 5f at concentrations of 1, 5, and 10 μM for 12 h were stained with Hoechst 33,258, with HCPT as positive control at 10 μM for 12 h. The results are illustrated in Fig. 2b.
as §4, with “cells were fixed” for “cover slip”, “4% paraformaldehyde for 10 min, followed by incubation” for “monolayer cells was inverted on the glass slide”, “Hoechst 33,258 staining solution (Beyotime) for 5 min” for “20 μL of AO/EB stain (100 μg/mL),”

| SMILES | inhibition at 10 µM [1] | inhibition at 10 µM ([2]; 10 μM, 72 h, read-out: Inhibition rates against different cells (%) MGC-803) | IC50 ([2]; 72 h after treatment) | AO/EB staining, apoptotic morphology (MGC-803 cells [3]) | apoptosis of MGC-803 cells over time (MGC-803 cells [4]; 10 μM for 6, 12, and 24 h) | apoptosis ratio (MGC-803 cells [4]) | inhibition at 10 µM ([5]; Bcap37, 10 μM, 72 h, read-out: Inhibition rates against different cells (%) Bcap-37) | IC50 ([5]; Bcap37, 72 h after treatment) | inhibition at 10 µM ([6]; PC-3, 10 μM, 72 h, read-out: Inhibition rates against different cells (%) PC3) | IC50 ([6]; PC-3, 72 h after treatment) | TUNEL staining (MGC-803 cells [7]) | Hoechst 33,258 staining, apoptotic morphology (MGC-803 cells [8]) |
| --- | --- | --- | --- | --- | --- | --- | --- | --- | --- | --- | --- | --- |
| Cc1ccc2ncnc(Oc3ccccc3/C=C/C(=O)/C=C/c3c(Cl)cccc3Cl)c2c1 [Compound 5f, (1E,4E)-1-(2,6-dichlorophenyl)-5-(2-((6-methylquinazolin-4-yl)oxy)phenyl)penta-1,4-dien-3-one] | 21.5 ± 2.7% | 90.7 ± 0.6% | 0.85 ± 0.43 µM | apoptotic cells with typical apoptotic features | gradually increased in a time-dependent manner | 26.4% | 76.5 ± 1.9% | 4.98 ± 0.39 µM | 93 ± 1.8% | 1.37 ± 0.22 µM | appeared as brown precipitate | exhibited strong blue fluorescence and revealed typical apoptotic morphology |
| CC[C@@]1(O)C(=O)OCc2c1cc1n(c2=O)Cc2cc3cc(O)ccc3nc2-1 [HCPT, 10-hydroxyl camptothecine, reference compound] |  |  |  | apoptotic cells with typical apoptotic features |  | 22.3% |  |  |  |  | appeared as brown precipitate |  |
